The source of these data is patent US11633370B2, “Use of scavengers of reactive gamma-ketoaldehydes to extend cell lifespan and healthspan” (Vanderbilt University, priority 2016, dated 2023).

For assay [1], the system named is intact cells exposed to hydrogen peroxide. The note with it: SA pre-treatment, vehicle control 95% cell death; cited from earlier work.
For assay [2], the system named is N2 WT C. elegans. As to the kind of experiment: Lipofuscin autofluorescence measurement, N2. The settings on record: 100 μM or 500 μM SA versus vehicle control; p<0.01. It counts as in vivo. An excerpt:
To quantify this, the present inventors chose both a biochemical endpoint (lipofuscin autofluorescence) and a behavioral measure (pharyngeal pumping) that change predictably with aging and are associated with healthspan. The accumulation in the nematode intestinal epithelium of autofluorescent lipofuscin granules, a heterogeneous mixture of oxidized and crosslinked lipids and proteins and advanced glycation end products, is a known conserved phenomenon observed to increase with age. Visualization of lipofuscin granules is often used as an age-related assessment of healthspan. Lipofuscin autofluorescence were quantified over time (every 5 days) in N2 adult nematodes (10-20 per colony) in the presence of increasing doses of SA. SA response profiles were generated from integrating the area-under-the-curve (AUC) of fluorescent intensity as a function of time (FIG. 1C). […] For a behavioral/functional measurement of health, pharyngeal pumping rates were quantified. […] Pharyngeal pumping rates quantified in WT N2 worms established on OP50-seeded NGM agar plates with increasing concentrations of SA. The frequency of pharyngeal pumping was measured and recorded every fifth day as the animals aged.
Synchronized late L4/early young adult worms were plated on FUDR containing SA-OP50-seeded NGM plates and worms were maintained at 20° C. […] The fluorescence was calculated using ImageJ software.

Assay [3] deals with N2 WT C. elegans. The experiment in a line: IsoK-lysyl-lactam protein adduct quantification by LC/MS/MS. Type of assay: in vivo. The note with it: increasing concentrations of SA until day 15, versus vehicle control; p<0.01. An excerpt:
The mechanism by which IsoKs inactivate protein targets involves covalent adduction of the epsilon amine group on the side chains of lysine residues within target proteins (FIG. 2A). The initial product of this covalent adduction is a lactam ring structure composed of the lysyl side chain and the isoketal. SA's amine group is much more reactive toward IsoKs and preserves protein function by more rapidly forming an adduct with the IsoK, preventing the adduction of lysyl side chains. If this mechanism is operative in vivo when C. elegans are treated with SA, a dose-dependent reduction in IsoK-lysyl-lactam adducts should be observed. To test this directly, WT N2 worms were treated with vehicle or increasing concentrations of SA until day 15, then collected for IsoK-lysyl-lactam adduct quantification by liquid chromatography tandem mass spectrometry (LC/MS/MS) using a heavy isotope-labeled internal standard for quantification.
Worms grown on FUDR containing SA-OP50-seeded NGM plates were collected at Day 15 adult stage by washing in M9 medium, followed by an ice-cold 60% w/v sucrose gradient to segregate clean bacteria-free adult worms from bacterial debris. Clean worms were transferred to Eppendorf tubes and flash-frozen in liquid nitrogen and thawed at 37° C. 3×. […] Levels of IsoK-lysyl-lactam adduct was measured as previously described. […]

Assay [4] has as its system N2 WT C. elegans. The experiment in a line: Real-time RT-PCR (TaqMan) gene expression, N2. Type of assay: in vivo. The settings on record: p<0.05. An excerpt:
First, to validate the microarray results, the present inventors performed real-time RT-PCR on four genes, siah-1, sma-4, F13D12.6, and ets-7 (FIG. 6B). […] Messenger RNA levels for siah-1 and sma-4 were decreased by nearly 25%, as well as F13D12.6 and ets-7 were increased by nearly 25% by SA administration (p<0.05). Pathway Analysis using Gene Ontology (GO) with WEB-based Gene SeT Analysis Toolkit (WEBGESTALT <http://bioinfo.vanderbilt.edu/webgestalt/>) highlighted the metabolic process, lipid metabolic process, proteolysis pathways among many others as being altered favorably by the administration of SA (see Supplemental Data). From the array data confirmed by RT-PCR, the present inventors identified the ETS class transcription factor ETS-7 as a protein of interest. ETS factors are known to be involved in regulating lipid metabolism and regulate lifespan in both Drosophila melanogaster and C. elegans. To investigate the role of ETS-7 in regulating lifespan downstream from salicylamine, SA was administered to the ets-7 gene knock-out strain, RB981 [F19F10.5(ok888) V]). […] The present inventors originally hypothesized that upregulation of ets-7 depends on SIR-2.1, which could result in enhanced longevity. In order to test this, the present inventors carried out real-time RT-PCR quantification of ets-7 in non-functional SIR-2.1 mutant nematodes treated with increasing doses of SA (FIG. 6E).
Total RNA was isolated via the Trizol method, as described previously. Following isolation, 2 μg total RNA was used for cDNA synthesis using the High Capacity cDNA Reverse Transcription Kit (Life Technologies), per manufacturer's instructions. Quantitative real time PCR (Bio-Rad) was conducted using TaqMan Gene Expression Assay Probes (Life Technologies) for each gene. Amplified products was normalized to housekeeping gene, ama-1 (RNA polymerase II) after determining fold difference using the comparative 2^−ΔΔct method. The following probes were used: ama-1 (Assay ID: Ce2462269_m1), ets-7 (Ce02477624_g1), F13D12.6 (Ce02439540_m1), siah-1 (Assay ID: Ce02462269_m1), and sma-4 (Assay ID: Ce202447346_1).

Molecules are shown by their SMILES.

On to `NCc1ccccc1O` [SA, salicylamine], for which the “occurrence in cell death” value in assay [1] is 5%. For the same molecule, the “age-associated lipofuscin accumulation (AUC of autofluorescence over time)” value in assay [2] was “significant reduction”. The IsoK-lysyl-lactam adduct levels result in assay [3] is given as “significant, dose-dependent reduction”. Further, the “increase in ets-7 messenger RNA level” value in assay [4] (500 μM SA, Day 15 WT N2) is on record as 32%. In assay [4] (Day 15 WT N2, SA administration), the “increase in ets-7 messenger RNA level” value is reported as 25%. In addition, in assay [4] (Day 15 WT N2), the “decrease in siah-1 messenger RNA level” value is listed as around 25%, the “decrease in sma-4 messenger RNA level” value is given as around 25% and the “increase in F13D12.6 messenger RNA level” value was around 25%.
